Square brackets hold non-standard residues; d marks the D form. Peptide text beside a SMILES is read from it. * marks the point of attachment. Sta = CC(C)C[C@H](N)[C@@H](O)CC(=O)O; Isovaleryl = CC(C)CC(=O)*; Cbz = O=C(OCc1ccccc1)*; CH2F = FC*
What was measured:
Format in all cases: cell-based
[1] = tested on: human prostate cancer ALVA-41 cells; experiment: survival rate of cells (Cell Counting Kit-8), ALVA-41 cells; details: for number of living cells: ALVA-41 cells, 20 hours
Method: The survival rate of cells was measured by Cell Counting Kit-8 in accordance with a manufacturer's manual. The method will be described briefly as follows. A 96-well (each 100 μl) plate was inoculated with cells (1×10^4 cells) and incubated for 24 hours, and the cells were incubated in a non-serum culture medium Opti-MEM together with a given concentration of each cathepsin purified from rat stomach (References #27 and #60-#62). Thereafter, the kit reagent (10 μl) was added to each well and the wells were incubated for another 1 hour. After incubation, each well was measured at the absorbance of 450 nm with a microplate reader.
(§1) In the figure, an indicating bar scale represents 50 μm. […] In the figure, an indicating bar scale represents 50 μm.
In this experiment, the survival rate of the ALVA-41 cells was measured by incubating the cells with cathepsin E of a given concentration in the presence or absence of pepstatin A (100 μM) at 37° C. and pH 7.4 for 20 hours. The data is represented as a percentage with respect to the value for non-treated cell group. The data were obtained as an average value±SD from the data obtained by four separate experiments. […] In this experiment, the HEK293 cells were incubated together with a given concentration of natural cathepsin E, wild-type recombinant and the active site mutant (D98A/D283A) at 37° C. and pH 7.4 for 20 hours. The survival rate of the cells was measured and represented as a percentage with respect to the value of the non-treated cell group. The data represents an average value±SD from the data obtained by four separate experiments. In the value, *p<0.001 is a corresponding value for the cells treated with the mutant. […] In this experiment, ALVA-41 cells were treated solely with cathepsin E of a given concentration in the same manner as for FIG. 2A and the culture supernatant was recovered, followed by centrifuging to remove the precipitate and transferring a portion ([…]) of the supernatant to a freshly prepared culture of ALVA-41 cells. Thereafter, the cells were incubated at 37° C. and pH 7.4 for 20 hours in the absence (black round mark) or presence (white round mark) of pepstatin A (100 μM) and measured for the survival rate of the cells. The cell survival rate is represented as a percentage with respect to the value of the cells treated with the culture supernatant of the ALVA-41 cells treated with physiological saline. The data is represented as an average value±SD from the data obtained by four separate experiments. […] The cathepsin E activity (on the upper panel) and the cytotoxic activity (on the lower panel) of each column fraction were determined using freshly prepared ALVA-41 cells and a cathepsin E-specific substrate. The cell survival rate of each fraction treated with the protein at a given final concentration is represented as a percentage with respect to the value of the cells treated with physiological saline and as an average value±SD from the data obtained by four separate experiments. The cathepsin E activity is represented as a percentage of the total activity in the culture supernatant, and the data is represented as an average±SD from the data obtained by three separate experiments.

[2] = tested on: human prostate cancer ALVA-41 cells; experiment: measurement for apoptosis (morphology, annexin V staining, TUNEL assay), ALVA-41 cells; details: for effect of caspase inhibitor on cell death of cancer cells caused by cathepsin E: ALVA-41 cells treated with cathepsin E
Method: The cells were measured for a morphological variation of apoptosis by phase contrast microscopy. The cells of prophase and post-phase apoptosis were detected by annexin V staining and TUNEL assay. In order to carry out the annexin V staining of ALVA-41 cells, the cells were exposed to cathepsin E or cathepsin L for 4 hours and centrifuged. After centrifugation, the separated cells were washed twice with PBS and incubated with fluorescein isothiocyanate-conjugated annexin V for 10 minutes at room temperature in a dark place. The cells that were positive as a result of the annexin V staining were then detected with fluorescence microscope. The TUNEL assay was carried out for the incubated tumor cells using Apop Tag Peroxidase Apoptosis Detection Kit and for heterografts using Tumor TACS In Situ Apoptosis Detection Kit.
as §1

[3] = tested on: human leukemia U937 cells; experiment: survival of human leukemia U937 cells; details: sole administration, 10 μg/ml

cathepsin B
number of living cells ([1]; neutral pH, 10-100 μg/ml): increased the number of living cells in a concentration-dependent way

CC(C)CC(=O)N[C@H](C(=O)N[C@H](C(=O)N[C@@H](CC(C)C)[C@@H](O)CC(=O)N[C@@H](C)C(=O)N[C@@H](CC(C)C)[C@@H](O)CC(=O)O)C(C)C)C(C)C [pepstatin A, reference compound] (Isovaleryl-VV[Sta]A[Sta]-OH)
effect on cytotoxicity of cathepsin E against cancer cells ([1]; added to culture medium of ALVA-41 cells, pepstatin A 100 μM): suppressed

COC(=O)C[C@H](NC(=O)[C@H](C)NC(=O)[C@@H](NC(=O)OCc1ccccc1)C(C)C)C(=O)CF [z-VAD-fmlk, reference compound] (Cbz-Val-Ala-Asp(OMe)-CH2F)
effect of caspase inhibitor on cell death of cancer cells caused by cathepsin E [2]: suppression

cathepsin L
number of living cells ([1]; high concentration range (50-100 μg/ml)): decreases the number of the living cells | number of living cells ([1]; low concentration (10 μg/ml)): increase in the number of these living cells | staining with annexin V and TUNEL reagent ([2]; ALVA-41 cells, 100 μg/ml): negative | morphological changes of treated cells ([2]; ALVA-41 cells, microscopy, 100 μg/ml): necrosis-like morphological changes

DEVD-fmlk [reference compound]
effect of caspase inhibitor on cell death of cancer cells caused by cathepsin E [2]: suppression

COc1cc([C@@H]2c3cc4c(cc3[C@@H](O[C@@H]3O[C@@H]5CO[C@@H](C)O[C@H]5[C@H](O)[C@H]3O)[C@H]3COC(=O)[C@H]23)OCO4)cc(OC)c1O [etoposide]
rate of apoptosis of U937 cells [3]: approximately 40%

cathepsin D
number of living cells ([1]; neutral pH, 10-100 μg/ml): increased the number of living cells in a concentration-dependent way

— patent publication US20100047227A1, “NOVEL ANTICANCER CATHEPSIN FORMULATIONS AND ANTICANCER AGENT FOR USE IN COMBINED ANTICANCER THERAPY” (priority 2006, published 2010)
